Assay [1] concerns army worm larvae (Spodoptera frugiperda). Briefly: Spodoptera frugiperda larvae test (Example C, cabbage leaves sprayed). Conditions: spray. It is filed as in vivo.
Assay [2] deals with green peach aphid (Myzus persicae). Briefly: Myzus persicae test (Example A1, cabbage leaves sprayed). It is filed as in vivo. The settings on record: spray.
The subject of assay [3] is mustard beetle larvae (Phaedon cochleariae). Briefly: Phaedon cochleariae larvae test (Example B, cabbage leaves sprayed). The settings on record: 100 g/ha, spray.
In assay [4] the test system is green peach aphid (Myzus persicae). Briefly: Myzus persicae test (Example A2, cabbage leaves dipped). It is filed as in vivo. The settings on record: dipping. As to the method:
Cabbage leaves (Brassica oleracea) which are severely infested with the green peach aphid (Myzus persicae) are treated by dipping into the active substance preparation of the desired concentration.

Consider `Cc1cc(C(F)(C(F)(F)F)C(F)(F)F)ccc1NC(=O)c1cccc(I)c1C(=O)NC(C)(C)CS(C)(=O)=O` [Flubendiamide, flubendiamide, reference compound], for which the “Destruction in % after 6 days” value turned out to be 33% in assay [1] (0.8 g/ha) and 67% in assay [1] (4 g/ha). Also, the “Destruction in % after 1 day” value in assay [2] (0.16 g/ha) was 0%. Further, in assay [3], the “Destruction in % after 2 days” value came to 17%.

On to `Cc1cc(C(F)(C(F)(F)F)C(F)(F)F)ccc1NC(=O)c1cccc(Cl)c1C(=O)N[C@@H](C)CS(C)(=O)=O` [Compound IIb, (S)-3-chloro-N^1-{2-methyl-4-[1,2,2,2-tetrafluoro-1-(trifluoromethyl)ethyl]phenyl}-N^2-(1-methyl-2-methylsulphonylethyl)phthalamide], for which the figures for the “Destruction in % after 1 day” value in assay [4] (100 ppm) and in assay [2] (0.8 g/ha) were 10% and 0%, respectively. Also, the “Destruction in % after 6 days” value in assay [1] (0.16 g/ha) is listed as 0%; in assay [1] (0.8 g/ha), 67%.

As for `CN(Cc1cnc(Cl)c(F)c1)C1=CC(=O)OC1` [Compound I-6, 4-{[(6-chloro-5-fluoropyrid-3-yl)methyl](methyl)amino}furan-2(5H)-one], the “Destruction in % after 6 days” value in assay [1] (4 g/ha) is listed as 0%. For the same compound, in assay [2] (0.16 g/ha), the “Destruction in % after 1 day” value is recorded as 30%. Also, the “Destruction in % after 2 days” value in assay [3] came to 0%.

As to `CN(Cc1ccc(Cl)nc1)C1=CC(=O)OC1` [Compound I-10, 4-{[(6-chloropyrid-3-yl)methyl](methyl)amino}furan-2(5H)-one], the “Destruction in % after 1 day” value in assay [4] (0.8 ppm) stood at 45%.

`O=C1C=C(N(CCF)Cc2ccc(Cl)nc2)CO1` [Compound I-4, 4-{[(6-chloropyrid-3-yl)methyl](2-fluoroethyl)amino}furan-2(5H)-one]: the “Destruction in % after 6 days” value in assay [1] (4 g/ha) came out at 0%. Further, the “Destruction in % after 1 day” value in assay [2] (4 g/ha) is 30%. Moreover, the “Destruction in % after 2 days” value in assay [3] is on record as 0%.

`O=C1C=C(N(Cc2ccc(Cl)nc2)CC(F)F)CO1` [Compound I-5, 4-{[(6-chloropyrid-3-yl)methyl](2,2-difluoroethyl)amino}furan-2(5H)-one]: the “Destruction in % after 6 days” value in assay [1] (0.8 g/ha) was determined as 0%.

Values taken from US8497228B2, “Active substance combinations with insecticidal and acaricidal properties” (Bayer Cropscience AG, priority 2007, dated 2013).
